We go through ten compounds from US12697325B2 (TENNOR THERAPEUTICS (SUZHOU) LIMITED, priority 2021, dated 2026).

The experiment relates to Acinetobacter baumannii clinical strains. Nature of the experiment: Information of drug resistance of 10 clinical strains. In kind it is cell-based. Set-up: key: S: Drug Susceptible; I: Drug Intermediate; R: Drug Resistant.

For the compound `NCC[C@H](O)C(=O)N[C@@H]1C[C@H](N)[C@@H](O[C@H]2O[C@H](CN)[C@@H](O)[C@H](O)[C@H]2O)[C@H](O)[C@H]1O[C@H]1O[C@H](CO)[C@@H](O)[C@H](N)[C@H]1O` [Amikacin], the Drug resistance entry reads like this: (strain TNP041702) “R”; (strain TNP041703) “R”; (strain TNP041704) “R”; (strain TNP041705) “R”; (strain TNP041706) “S”; (strain TNP041707) “R”. The Drug resistance result by setting is: (strain TNP041708) “S”; (strain TNP041709) “R”; (strain TNP041710) “R”; (strain TNP041711) “R”.
In the case of `Cc1nnc(SCC2=C(C(=O)O)N3C(=O)[C@@H](NC(=O)Cn4cnnn4)[C@H]3SC2)s1` [Cefazolin], the Drug resistance result (strain TNP041702) is “R”; the Drug resistance entry (strain TNP041703) is recorded as “R”; the Drug resistance result (strain TNP041704) is given as “R”; the Drug resistance entry (strain TNP041705) was “R”; the Drug resistance result (strain TNP041706) is on record as “R”; the Drug resistance result (strain TNP041707) is reported as “R”. Also, the Drug resistance result is listed as “R” (strain TNP041708), “R” (strain TNP041709), “R” (strain TNP041710) and “R” (strain TNP041711).
As to `CO/N=C(\C(=O)N[C@@H]1C(=O)N2C(C(=O)[O-])=C(C[N+]3(C)CCCC3)CS[C@H]12)c1csc(N)n1` [Cefepime], the Drug resistance result runs as follows: (strain TNP041702) “R”; (strain TNP041703) “R”; (strain TNP041704) “R”; (strain TNP041705) “R”; (strain TNP041706) “R”; (strain TNP041707) “R”. The Drug resistance entry (strain TNP041708) is “R”, the Drug resistance entry (strain TNP041709) is recorded as “R”, the Drug resistance entry (strain TNP041710) is recorded as “R” and the Drug resistance entry (strain TNP041711) was “R”.
As to `CO/N=C(\C(=O)N[C@@H]1C(=O)N2C(C(=O)O)=C(COC(C)=O)CS[C@H]12)c1csc(N)n1` [Cefotaxime], the Drug resistance result is, setting by setting: (strain TNP041702) “R”; (strain TNP041703) “R”; (strain TNP041704) “R”; (strain TNP041705) “R”; (strain TNP041706) “R”; (strain TNP041707) “R”. In addition, the Drug resistance entry reads like this: (strain TNP041708) “R”; (strain TNP041709) “R”; (strain TNP041710) “R”; (strain TNP041711) “R”.
With `CC(C)(O/N=C(\C(=O)N[C@@H]1C(=O)N2C(C(=O)[O-])=C(C[n+]3ccccc3)CS[C@H]12)c1csc(N)n1)C(=O)O` [Ceftazidime], the Drug resistance entry is, setting by setting: (strain TNP041702) “R”; (strain TNP041703) “R”; (strain TNP041704) “R”; (strain TNP041705) “R”; (strain TNP041706) “R”; (strain TNP041707) “R”. Moreover, the Drug resistance result reads like this: (strain TNP041708) “R”; (strain TNP041709) “R”; (strain TNP041710) “R”; (strain TNP041711) “R”.
As for `CO/N=C(\C(=O)N[C@@H]1C(=O)N2C(C(=O)O)=C(COC(N)=O)CS[C@H]12)c1ccco1` [Cefuroxime], the Drug resistance result is “R” (strain TNP041702); “R” (strain TNP041703); “R” (strain TNP041704); “R” (strain TNP041705); “R” (strain TNP041706); “R” (strain TNP041707). Also, the Drug resistance entry is recorded as “R” (strain TNP041708), “R” (strain TNP041709), “R” (strain TNP041710) and “R” (strain TNP041711).
On to `C[C@@H](O)[C@H]1C(=O)N2C(C(=O)O)=C(SCCN=CN)C[C@H]12` [Imipenem], for which the Drug resistance result (strain TNP041702) is “R”; the Drug resistance entry (strain TNP041703) is reported as “R”; the Drug resistance entry (strain TNP041704) is given as “R”; the Drug resistance result (strain TNP041705) is listed as “R”; the Drug resistance entry (strain TNP041706) is listed as “R”; the Drug resistance entry (strain TNP041707) was “R”. Besides, the Drug resistance result (strain TNP041708) is listed as “R”, the Drug resistance entry (strain TNP041709) is “R”, the Drug resistance entry (strain TNP041710) is “R” and the Drug resistance entry (strain TNP041711) is “R”.
As for `C[C@@H](O)[C@H]1C(=O)N2C(C(=O)O)=C(S[C@@H]3CN[C@H](C(=O)N(C)C)C3)[C@H](C)[C@H]12` [Meropenem], the Drug resistance result is, setting by setting: (strain TNP041702) “R”; (strain TNP041703) “R”; (strain TNP041704) “R”; (strain TNP041705) “R”; (strain TNP041706) “R”; (strain TNP041707) “R”. Further, the Drug resistance result is, setting by setting: (strain TNP041708) “R”; (strain TNP041709) “R”; (strain TNP041710) “R”; (strain TNP041711) “R”.
In the case of `CCN1CCN(C(=O)N[C@@H](C(=O)N[C@@H]2C(=O)N3[C@@H]2SC(C)(C)[C@@H]3C(=O)O)c2ccccc2)C(=O)C1=O` [Piperacillin], the Drug resistance entry is, setting by setting: (strain TNP041702) “R”; (strain TNP041703) “R”; (strain TNP041704) “R”; (strain TNP041705) “R”; (strain TNP041706) “R”; (strain TNP041707) “R”. The Drug resistance entry is, setting by setting: (strain TNP041708) “R”; (strain TNP041709) “R”; (strain TNP041710) “R”; (strain TNP041711) “R”.
In the case of Gentamicin, the Drug resistance result is “R” (strain TNP041702); “R” (strain TNP041703); “R” (strain TNP041704); “R” (strain TNP041705); “S” (strain TNP041706); “R” (strain TNP041707). Also, the Drug resistance result is “R” (strain TNP041708), “R” (strain TNP041709), “R” (strain TNP041710) and “R” (strain TNP041711).
